Reference: patent publication US20130023504A1, “Modulation of Prostaglandin/Cyclooxygenase Metabolic Pathways” (HUNTER-FLEMING LIMITED, priority 2006, published 2013)

Experiments:
[1] = tested on: control rats without colitis; assay: Colonic prostaglandin levels and COX-2/PG synthase mRNA in control rats without colitis; assay type: in vivo, rat
Procedure: After a 7-day adaptation period, animals were divided into two control groups (sham-control and 7β-hydroxy-EPIA-treated control group and two colitis groups (colitis and 7β-hydroxy-EPIA-treated colitis). 7β-Hydroxy-EPIA (0.01, 0.1, and 1 mg/kg body weight dissolved in DMSO) or DMSO alone (vehicle) was administered i.p. once a day for 7 days, from day 0 to day 7. Colitis was induced from day 7 to 14 by addition of DSS (molecular weight 36-50 kDa; MP Biomedicals, France) to drinking water. The two control groups received tap water only.
Commercially available EIA kits were used for the determination of PGE2 levels (Oxford Biomedical Research, UK) and 15d-PGJ2 levels (Assay designs, Euromedex, France) in colonic supernatants obtained from fresh homogenates. Measurement of PGD2 levels was obtained using the prostaglandin D2-MOX EIA kit (Cayman Chemical, Euromedex). In this case, and prior to assay, the fresh samples were immediately treated with the MOX-HCl reagent which converted PGD2 into PGD2-MOX, thus preventing any further chemical degradation.
Total RNA from fresh colonic samples (300 mg) was extracted using Trizol Reagent (Invitrogen, Cergy-Pontoise, France). Poly(A) RNA was purified from total RNA with MicroPoly(A)Purist kit (Ambion, Huntingdon, UK). cDNA was synthesized using the Superscript first strand synthesis system kit (Invitrogen). Real-time PCR was performed using mixtures (25 μL) containing 2.5× RealMaster Mix/20×SYBR solution (11.25 μL) (Eppendorf, Le Pecq, France) and 300 nM forward and reverse primers. Reactions were run on a RealPlex ep gradient S mastercycler (Eppendorf). The cycling conditions were at 95° C. for 10 minutes and 40 cycles at 95° C., 55° C. and 68° C. for 15 seconds, 30 seconds and 30 seconds, respectively. Each assay included a standard curve of four serial dilution points of control cDNA. Oligonucleotide primers were synthesized by Genecust/Distribio (Evry, France). The specificity of the amplified product was monitored by examination of the product melting curve and confirmed by analysis on agarose gel electrophoresis. The levels of mRNA were expressed relative to that of the DMSO control, after normalization to HPRT1.

[2] = tested on: rat sensory neurones; assay: Neurite growth of sensory neurones in primary culture (anti β-Tubulin, In Cell Analyzer); assay type: cell-based
Procedure: Rat sensory neurones were prepared according to the method described by Hall et al. 1997 (Hall A K, Ai X, Hickman G E, MacPhedran S E, Nduaguba C O, Robertson C P. The generation of neuronal heterogeneity in a rat sensory ganglion. J. Neurosci. 1997 Apr. 15; 17(8):2775-84). Briefly, female rats (15 days gestation) were killed by cervical dislocation (Rats Wistar; Janvier, Le Genest-St-Isle, France) and the foetuses removed from the uterus. Their spinal cords with the dorsal root ganglia (DRG) were removed and placed in ice-cold medium of Leibovitz (L15, Fisher 11415-049) containing Penicillin 50 Ul/ml-Streptomycin 50 pg/ml (PS, 1%) and bovine serum albuminutes (BSA 1%, Sigma A6003). The DRG were recovered and dissociated by trypsinisation for 20 minutes at 37° C. (trypsin EDTA 10×, 10%, Fisher 15400054) diluted in PBS without calcium and magnesium (Fisher 2007-03). The reaction was stopped by addition of Dulbecco modified Eagle medium (DMEM, Fisher 21969-035) containing DNase I grade II (0.1 mg/ml Roche diagnostic 104159) and foetal bovine serum (FBS 10%, Fisher 10270-098). The cell suspension was triturated with a 10 ml pipette and centrifuged at 350×g for 10 minutes at room temperature. The pellet of dissociated cells was then resuspended in defined culture medium.
Viable cells were counted in a Neubauer cytometer using the trypan blue exclusion test (Sigma) and seeded at a density of 25 000 cells/well in 96 well-plates (Nunc). Wells were pre-coated with poly-L-lysine (10 μg/ml, Sigma P2636) in ultra pure sterile water (Merck Eurolab 60759.01).
Cells were allowed to adhere for 2 hours and maintained in a humidified incubator at 37° C. in 5% CO2/95% air atmosphere.
The culture medium was changed into a defined culture medium after a 12 hours incubation period following the conditions described below:
NGF 50 ng/ml and 10 ng/ml (in 0.1% DMSO)
After 6 hours, 12 hours and 24 hours of incubation with 7β-OH EPIA, cells were fixed for 5 minutes in an ethanol/acetic acid solution (95%/5%) at −20° C. and rinsed 3 times in PBS.
Motor neurones and sensory neurones were labelled by monoclonal anti β-Tubulin antibody (Sigma T8660) diluted at 1:400 in incubation solution (PBS with 5% of FCS and 0.1% of saponin, Sigma S-7900). This antibody specifically labels neurone cell bodies and neurites.
After 2 hours of incubation, the cells were washed in PBS and incubated with Alexa Fluor 488 goat anti mouse IgG (Molecular Probes A11001) diluted at 1:300 in incubation solution to reveal the 8-Tubulin III antibodies.
Analysis of the total length of neurones labelled with anti β-Tubulin antibodies (neurones) were carried out using In Cell Analyzer 1000 3.2.Workstation software.
The results were expressed in percentage compared to the vehicle. Comparison of groups was carried out using the unpaired T test.

## CC12CCC3C(C1CCC2=O)[C@@H](O)C[C@H]1C[C@@H](O)CCC31C (stereo partly drawn) [Compound 7β-OH-EPIA, 7β-hydroxy-EPIAndrosterone]
[1]; 0.1 mg/kg day 0 to day 7, day 2
  increase of colonic 15d-PGJ2 above basal levels: 51 fold
[1]; 0.1 mg/kg, at 15 h
  increase in COX-2 mRNA levels: 1.5 fold
[1]; 0.1 mg/kg, between 6 h and 15 h
  mPGES-1 mRNA expression: increased transiently
[1]; 0.1 mg/kg, course of the experiment
  H-PGDS mRNA synthesis: remained unchanged
[1]; control rats without colitis
  PGE2 and PGD2 colonic tissue levels: did not alter
[2]; 10^−4 M, 6 hours
  Neurites length per field, % Vehicle: 101%
  Neurites length per field, Mean: 103.2 μm
[2]; 10^−4 M, 12 hours
  Neurites length per field, % Vehicle: 97%
  Neurites length per field, Mean: 290.3 μm
[2]; 10^−4 M, 24 hours
  Neurites length per field, % Vehicle: 104%
  Neurites length per field, Mean: 228.6 μm
[2]; 10^−5 M, 6 hours
  Neurites length per field, % Vehicle: 112%
  Neurites length per field, Mean: 114.8 μm
[2]; 10^−5 M, 12 hours
  Neurites length per field, % Vehicle: 108%
  Neurites length per field, Mean: 321.0 μm
[2]; 10^−5 M, 24 hours
  Neurites length per field, % Vehicle: 111%
  Neurites length per field, Mean: 244.8 μm
[2]; 10^−6 M, 6 hours
  Neurites length per field, % Vehicle: 96%
  Neurites length per field, Mean: 97.7 μm
[2]; 10^−6 M, 12 hours
  Neurites length per field, % Vehicle: 96%
  Neurites length per field, Mean: 287.0 μm
[2]; 10^−6 M, 24 hours
  Neurites length per field, % Vehicle: 86%
  Neurites length per field, Mean: 189.9 μm
[2]; 10^−7 M, 6 hours
  Neurites length per field, % Vehicle: 149%
  Neurites length per field, Mean: 151.8 μm
[2]; 10^−7 M, 6 hours, listed as 7β-OH EPIA
  Neurites length per field, % Vehicle: 171%
[2]; 10^−7 M, 12 hours
  Neurites length per field, % Vehicle: 134%
  Neurites length per field, Mean: 398.4 μm
[2]; 10^−7 M, 24 hours
  Neurites length per field, % Vehicle: 173%
  Neurites length per field, Mean: 380.8 μm
[2]; 10^−8 M, 6 hours
  Neurites length per field, % Vehicle: 176%
  Neurites length per field, Mean: 179.3 μm
[2]; 10^−8 M, 12 hours
  Neurites length per field, % Vehicle: 123%
  Neurites length per field, Mean: 368.3 μm
[2]; 10^−8 M, 24 hours
  Neurites length per field, % Vehicle: 174%
  Neurites length per field, Mean: 384.3 μm
[2]; 10^−9 M, 6 hours
  Neurites length per field, % Vehicle: 171%
  Neurites length per field, Mean: 174.2 μm
[2]; 10^−9 M, 6 hours, listed as 7β-OH EPIA
  Neurites length per field, % Vehicle: 149%
[2]; 10^−9 M, 12 hours
  Neurites length per field, % Vehicle: 145%
  Neurites length per field, Mean: 431.8 μm
[2]; 10^−9 M, 24 hours
  Neurites length per field, % Vehicle: 147%
  Neurites length per field, Mean: 324.9 μm
